Each molecule was assayed against CDK2/Cyclin E1 (Homo sapiens (Human), UniProt P24941) (assay: CDK2/Cyclin E1 HTRF enzyme activity assay (Example A)). Details: 1 mM ATP.
Type: biochemical
Description: Assays were conducted in white 384-well polystyrene plates in a final reaction volume of 8 μL. […] HTRF signals were read after 1 hour at room temperature on a PHERAstar FS plate reader (BMG Labtech). Data was analyzed with IDBS XLFit and GraphPad Prism 5.0 software using a three or four parameter dose response curve to determine IC50 for each compound.
Molecule `CN(C)Cc1ccc(-n2cnc(-c3nc(N[C@H]4CCN(S(C)(=O)=O)C[C@H]4F)ncc3C(F)(F)F)c2)c(Cl)c1` [Example 183, 4-(1-(2-Chloro-4-((dimethylamino)methyl)phenyl)-1H-imidazol-4-yl)-N-((3R,4S)-3-fluoro-1-(methylsulfonyl)piperidin-4-yl)-5-(trifluoromethyl)pyrimidin-2-amine] has an IC50 of at most 0.05 µM.
Work on `CS(=O)(=O)N1CC[C@H](Nc2ncc(C(F)(F)F)c(-c3cn(-c4ccc(CN5CCC5)cc4Cl)cn3)n2)[C@H](F)C1` [Example 184, 4-(1-(4-(Azetidin-1-ylmethyl)-2-chlorophenyl)-1H-imidazol-4-yl)-N-((3R,4S)-3-fluoro-1-(methylsulfonyl)piperidin-4-yl)-5-(trifluoromethyl)pyrimidin-2-amine] yielded an IC50 of at most 0.05 µM.
Work on `CC(=O)NCc1ccc(-n2cnc(-c3nc(NC4CCN(S(C)(=O)=O)CC4)ncc3C(F)(F)F)c2)c(Cl)c1` [Example 185, N-(3-Chloro-4-(4-(2-((1-(methylsulfonyl)piperidin-4-yl)amino)-5-(trifluoromethyl)pyrimidin-4-yl)-1H-imidazol-1-yl)benzyl)acetamide] yielded an IC50 of at most 0.05 µM.
`CS(=O)(=O)N1CCC(Nc2ncc(C(F)(F)F)c(-c3cn(-c4ccc(CNCC(F)F)cc4Cl)cn3)n2)CC1` [Example 186, 4-(1-(2-Chloro-4-(((2,2-difluoroethyl)-amino)methyl)phenyl)-1H-imidazol-4-yl)-N-(1-(methylsulfonyl)-piperidin-4-yl)-5-(trifluoromethyl)-pyrimidin-2-amine] gave an IC50 of at most 0.05 µM.
For `CS(=O)(=O)N1CCC(Nc2ncc(C(F)(F)F)c(-c3cn(-c4ccc(CNCC#N)cc4Cl)cn3)n2)CC1` [Example 187, 2-((3-Chloro-4-(4-(2-((1-(methylsulfonyl)-piperidin-4-yl)amino)-5-(trifluoromethyl)-pyrimidin-4-yl)-1H-imidazol-1-yl)benzyl)-amino)acetonitrile], the IC50 was at most 0.05 µM.
With `CS(=O)(=O)N1CCC(Nc2ncc(C(F)(F)F)c(-c3cn(-c4ccc(CNCC(F)(F)F)cc4Cl)cn3)n2)CC1` [Example 188, 4-(1-(2-Chloro-4-(((2,2,2-trifluoroethyl)-amino)methyl)phenyl)-1H-imidazol-4-yl)-N-(1-(methylsulfonyl)-piperidin-4-yl)-5-(trifluoromethyl)-pyrimidin-2-amine] the IC50 was at most 0.05 µM.
`CCNCc1ccc(-n2cnc(-c3nc(NC4CCN(S(C)(=O)=O)CC4)ncc3C(F)(F)F)c2)c(Cl)c1` [Example 189, 4-(1-(2-Chloro-4-((ethylamino)methyl)-phenyl)-1H-imidazol-4-yl)-N-(1-(methyl-sulfonyl)piperidin-4-yl)-5-(trifluoro-methyl)pyrimidin-2-amine] showed an IC50 of at most 0.05 µM.
`CS(=O)(=O)N1CCC(Nc2ncc(C(F)(F)F)c(-c3cn(-c4ccc(CNC5CC5)cc4Cl)cn3)n2)CC1` [Example 190, 4-(1-(2-Chloro-4-((cyclopropylamino)-methyl)phenyl)-1H-imidazol-4-yl)-N-(1-(methylsulfonyl)-piperidin-4-yl)-5-(trifluoromethyl)-pyrimidin-2-amine] gave an IC50 of at most 0.05 µM.
In the case of `CS(=O)(=O)N1CCC(Nc2ncc(C(F)(F)F)c(-c3cn(-c4ccc(CNCC5CC5)cc4Cl)cn3)n2)CC1` [Example 191, 4-(1-(2-Chloro-4-(((cyclopropylmethyl)-amino)methyl)phenyl)-1H-imidazol-4-yl)-N-(1-(methylsulfonyl)-piperidin-4-yl)-5-(trifluoromethyl)-pyrimidin-2-amine], the IC50 is reported as at most 0.05 µM.
For `CCN(C)Cc1ccc(-n2cnc(-c3nc(NC4CCN(S(C)(=O)=O)CC4)ncc3C(F)(F)F)c2)c(Cl)c1` [Example 192], the IC50 was at most 0.05 µM.
With `CS(=O)(=O)N1CCC(Nc2ncc(C(F)(F)F)c(-c3cn(-c4ccc(CN5CC(F)(F)C5)cc4Cl)cn3)n2)CC1` [Example 193, 4-(1-(2-Chloro-4-((3,3-difluoroazetidin-1-yl)methyl)phenyl)-1H-imidazol-4-yl)-N-(1-(methylsulfonyl)-piperidin-4-yl)-5-(trifluoromethyl)-pyrimidin-2-amine] the IC50 was at most 0.05 µM.
For `CC1(O)CN(Cc2ccc(-n3cnc(-c4nc(NC5CCN(S(C)(=O)=O)CC5)ncc4C(F)(F)F)c3)c(Cl)c2)C1` [Example 194, 1-(3-Chloro-4-(4-(2-((1-(methylsulfonyl)-piperidin-4-yl)amino)-5-(trifluoromethyl)-pyrimidin-4-yl)-1H-imidazol-1-yl)benzyl)-3-methylazetidin-3-ol], the IC50 was at most 0.05 µM.
In the case of `COC1CN(Cc2ccc(-n3cnc(-c4nc(NC5CCN(S(C)(=O)=O)CC5)ncc4C(F)(F)F)c3)c(Cl)c2)C1` [Example 195, 4-(1-(2-Chloro-4-((3-methoxyazetidin-1-yl)methyl)phenyl)-1H-imidazol-4-yl)-N-(1-(methylsulfonyl)-piperidin-4-yl)-5-(trifluoromethyl)-pyrimidin-2-amine], the IC50 is reported as at most 0.05 µM.
With `CC1(F)CN(Cc2ccc(-n3cnc(-c4nc(NC5CCN(S(C)(=O)=O)CC5)ncc4C(F)(F)F)c3)c(Cl)c2)C1` [Example 196, 4-(1-(2-Chloro-4-((3-fluoro-3-methyl-azetidin-1-yl)methyl)-phenyl)-1H-imidazol-4-yl)-N-(1-(methyl-sulfonyl)piperidin-4-yl)-5-(trifluoromethyl)-pyrimidin-2-amine] the IC50 was at most 0.05 µM.
Work on `CS(=O)(=O)N1CCC(Nc2ncc(C(F)(F)F)c(-c3cn(-c4ccc(CN5CC(F)C5)cc4Cl)cn3)n2)CC1` [Example 197, 4-(1-(2-Chloro-4-((3-fluoroazetidin-1-yl)methyl)phenyl)-1H-imidazol-4-yl)-N-(1-(methyl-sulfonyl)piperidin-4-yl)-5-(trifluoro-methyl)pyrimidin-2-amine] yielded an IC50 of at most 0.05 µM.
Molecule `CS(=O)(=O)N1CCC(Nc2ncc(C(F)(F)F)c(-c3cn(-c4ccc(CN5CC(C#N)C5)cc4Cl)cn3)n2)CC1` [Example 198, 1-(3-Chloro-4-(4-(2-((1-(methylsulfonyl)-piperidin-4-yl)amino)-5-(trifluoromethyl)-pyrimidin-4-yl)-1H-imidazol-1-yl)benzyl)-azetidine-3-carbonitrile] has an IC50 of at most 0.05 µM.
`CS(=O)(=O)N1CCC(Nc2ncc(C(F)(F)F)c(-c3cn(-c4ccc(CN5CC(O)C5)cc4Cl)cn3)n2)CC1` [Example 199, 1-(3-Chloro-4-(4-(2-((1-(methylsulfonyl)-piperidin-4-yl)amino)-5-(trifluoromethyl)-pyrimidin-4-yl)-1H-imidazol-1-yl)benzyl)-azetidin-3-ol] gave an IC50 of at most 0.05 µM.
For `CC1(C)CN(Cc2ccc(-n3cnc(-c4nc(NC5CCN(S(C)(=O)=O)CC5)ncc4C(F)(F)F)c3)c(Cl)c2)C1` [Example 200, 4-(1-(2-Chloro-4-((3,3-dimethyl-azetidin-1-yl)methyl)-phenyl)-1H-imidazol-4-yl)-N-(1-(methyl-sulfonyl)piperidin-4-yl)-5-(trifluoromethyl)-pyrimidin-2-amine], the IC50 was at most 0.05 µM.
Work on `CC1(CO)CCN1Cc1ccc(-n2cnc(-c3nc(NC4CCN(S(C)(=O)=O)CC4)ncc3C(F)(F)F)c2)c(Cl)c1` (stereo not drawn) [Example 201, (1-(3-Chloro-4-(4-(2-((1-(methylsulfonyl)-piperidin-4-yl)amino)-5-(trifluoromethyl)-pyrimidin-4-yl)-1H-imidazol-1-yl)benzyl)-2-methylazetidin-2-yl)methanol] yielded an IC50 of at most 0.05 µM.
Molecule `CS(=O)(=O)N1CCC(Nc2ncc(C(F)(F)F)c(-c3cn(-c4ccc(CN5CC6(CC(O)C6)C5)cc4Cl)cn3)n2)CC1` [Example 202, 2-(3-Chloro-4-(4-(2-((1-(methylsulfonyl)-piperidin-4-yl)amino)-5-(trifluoromethyl)-pyrimidin-4-yl)-1H-imidazol-1-yl)benzyl)-2-azaspiro[3.3]heptan-6-ol] has an IC50 of at most 0.05 µM.
With `CC(C)(O)C1CN(Cc2ccc(-n3cnc(-c4nc(NC5CCN(S(C)(=O)=O)CC5)ncc4C(F)(F)F)c3)c(Cl)c2)C1` [Example 203, 2-(1-(3-Chloro-4-(4-(2-((1-(methyl-sulfonyl)piperidin-4-yl)amino)-5-(trifluoromethyl)-pyrimidin-4-yl)-1H-imidazol-1-yl)-benzyl)azetidin-3-yl)propan-2-ol] the IC50 was at most 0.05 µM.
For `C[C@]1(O)CCN(Cc2ccc(-n3cnc(-c4nc(NC5CCN(S(C)(=O)=O)CC5)ncc4C(F)(F)F)c3)c(Cl)c2)C1` [Example 204, (S)-1-(3-Chloro-4-(4-(2-((1-(methyl-sulfonyl)piperidin-4-yl)amino)-5-(trifluoromethyl)-pyrimidin-4-yl)-1H-imidazol-1-yl)-benzyl)-3-methyl-pyrrolidin-3-ol], the IC50 was at most 0.05 µM.
For `CS(=O)(=O)N1CCC(Nc2ncc(C(F)(F)F)c(-c3cn(-c4ccc(CN5CC[C@@H](O)C5)cc4Cl)cn3)n2)CC1` [Example 205], the IC50 was at most 0.05 µM.
Molecule `CS(=O)(=O)N1CCC(Nc2ncc(C(F)(F)F)c(-c3cn(-c4ccc(CN5CC[C@H](O)C5)cc4Cl)cn3)n2)CC1` [Example 206, (S)-1-(3 -Chloro-4-(4-(2-((1-(methyl-sulfonyl)piperidin-4-yl)amino)-5-(trifluoromethyl)-pyrimidin-4-yl)-1H-imidazol-1-yl)benzyl)-pyrrolidin-3-ol] has an IC50 of at most 0.05 µM.
Molecule `CO[C@@H]1CCN(Cc2ccc(-n3cnc(-c4nc(NC5CCN(S(C)(=O)=O)CC5)ncc4C(F)(F)F)c3)c(Cl)c2)C1` [Example 207, (R)-4-(1-(2-Chloro-4-((3-methoxypyrrolidin-1-yl)methyl)phenyl)-1H-imidazol-4-yl)-N-(1-(methylsulfonyl)-piperidin-4-yl)-5-(trifluoromethyl)-pyrimidin-2-amine] has an IC50 of at most 0.05 µM.
`CS(=O)(=O)N1CCC(Nc2ncc(C(F)(F)F)c(-c3cn(-c4ccc(CN5CCCCC5)cc4Cl)cn3)n2)CC1` [Example 208] gave an IC50 of at most 0.05 µM.
`CN1CCN(Cc2ccc(-n3cnc(-c4nc(NC5CCN(S(C)(=O)=O)CC5)ncc4C(F)(F)F)c3)c(Cl)c2)CC1` [Example 209, 4-(1-(2-Chloro-4-((4-methylpiperazin-1-yl)methyl)phenyl)-1H-imidazol-4-yl)-N-(1-(methylsulfonyl)-piperidin-4-yl)-5-(trifluoromethyl)-pyrimidin-2-amine] was tested, and the IC50 was at most 0.05 µM.

From patent US11427567B2, “Imidazolyl pyrimidinylamine compounds as CDK2 inhibitors” (Incyte Corporation, priority 2019, dated 2022)
